Data from patent publication US5981525A, “Indole derivatives useful in the treatment of osteoporosis” (SmithKline Beecham Corporation, priority 1995, dated 1999).
Where a name gives a salt, the structure may show the parent alone.

Target: bafilomycin-sensitive ATPase
Assay: Inhibition of bafilomycin-sensitive ATPase in chicken osteoclasts (ATPase assay, Pi release)
Type: biochemical
Settings: chicken osteoclast membranes
Protocol: Vesicles were prepared from medullar bone obtained from tibiae and femurs of egg-laying hens which were calcium-starved for at least 15 days. Briefly, bone fragments were scraped with a 24 scalpel blade, suspended in 40 ml of isolation medium (0.2 M sucrose, 50 mM KCl, 10 mM Hepes, 1 mM EGTA, 2 mM dithiotheitrol, pH 7.4) and filtered through a 100 μm pore size nylon mesh. The whole procedure was performed at 4° C. After homogenisation in a potter (20 strokes) in 40 ml of isolation medium an initial centrifugation (6,500×gmax 20 min) was performed to remove mitochondria and lysosomes. The supematant was centrifuged at 100,000×gmax for 1 hr and the pellet was collected in 1 ml of isolation medium, divided into 200 μl aliquots, immediately frozen in liquid nitrogen and stored at -80° C. The protein content was determined using a Biorad colourimetric kit according to Bradford [M. Bradford, Anal. Biochem., 72, 248 (1976)]. For the proton transport assay, 5-10 μl of membranes were used.
Purification of osteoclast membranes. 1 ml of crude microsomal vesicles prepared above were applied (about 0.2 ml per tube ) on the top of a sucrose step-gradient consisting of 3.5 ml of 15%, 30% and 45% (w/w) sucrose in isolation medium and centrifuged at 280,000 gmax for 2 hours (SW 41 Ti rotor). After centrifugation the 30-45% sucrose interfaces were collected, diluted approx. 20-fold in isolation medium and pelletted at 100,000 gmax for 1 hour (SW 28 rotor). The pellet was then resuspended in 1 ml of isolation medium, aliquoted and frozen in liquid N2 and stored at -80° C. until used.
Inhibition of bafilomycin-sensitive ATPase activity was assessed in purified membrane vesicles by measuring the release of inorganic phosphate (Pi) during 30 min of incubation at 37° C. in a 96-well plate either in the presence or in the absence of bafilomycin Al. The reaction medium contained 1 mM ATP, 10 mM HEPES-Tris pH 8,50 mM KCl, 5 uM valinomycin, 5 uM nigericin, 1 mM CDTA-Tris, 100 uM ammonium molybdate, 0.2 M sucrose and membranes (20 ug protein/ml). The reaction was initiated by MgSO4 (8-arm pipette) and stopped, after 30 min, by addition of 4 volumes of the malachite green reagent (96-arm pipette) prepared according to Chan [Anal. Biochem. 157, 375 (1986)]. Absorbance at 650 nm was measured after 2 min using a microplate reader. Results are expressed as μmol (Pi)×mg protein^-1 ×hour^-1 and, for each experiment, represent the mean±sem of triplicates.
Work on `CO/C(=C\C=C\c1cc2cc(Cl)c(Cl)cc2[nH]1)C(=O)NCCN1CCCCC1` [Example 53, (2Z,4E)-5-(5,6-Dichloro-2-indolyl)-N-[2-(1-piperidinyl)-ethyl]-2-methoxy-2,4-pentadienamide] yielded an IC50 of 1.2 µM.
Work on `COC(=O)/C(=C/C=C/c1cc2cc(Cl)c(Cl)cc2[nH]1)OC` [Example 6, Methyl (2Z,4E)-5-(5,6-dichloro-2-indolyl)-2-methoxy-2,4-pentadienoate] yielded an IC50 of 1.1 µM.
Work on `CO/C(=C\C=C\c1cc2cc(Cl)c(Cl)cc2[nH]1)C(=O)NCCCn1ccnc1` [Example 49, (2Z,4E)-5-(5,6-Dichloro-2-indolyl)-N-[3-(1H-imidazol-1-yl)-propyl]-2-methoxy-2,4-pentadienamide] yielded an IC50 of 4 µM.
Molecule `CO/C(=C\C=C\c1cc2cc(Cl)ccc2[nH]1)C(=O)NCc1ccc(N)cc1` [Example 37] has an IC50 of 30 µM.
For `CO/C(=C\C=C\c1cc2cc(Cl)c(Cl)cc2[nH]1)C(=O)Nc1ncnc2[nH]ncc12` [Example 71, (2Z,4E)-5-(5,6-Dichloro-2-indolyl)-2-methoxy-N-(1H-pyrazolo[3,4-d]pyrimidin-4-yl)-2,4-pentadienamide], the IC50 was 0.53 µM.
Molecule `CCOC(=O)/C(=C/C=C/c1cc2cc(Cl)ccc2[nH]1)OCC` [Example 30, Ethyl(2Z,4E)-5-(5-chloro-2-indolyl)-2-ethoxy-2,4-pentadienoate] has an IC50 of 30 µM.
Work on `CO/C(=C\C=C\c1cc2cc(Cl)c(Cl)cc2[nH]1)C(=O)NC1CC(C)(C)NC(C)(C)C1` [Example 56, (2Z,4E)-5-(5,6-Dichloro-2-indolyl)-2-methoxy-N-[4-(2,2,6,6-tetramethyl)piperidinyl]-2,4-pentadienamide] yielded an IC50 of 0.07 µM.
For `CO/C(=C\C=C\c1cc2cc(Cl)c(Cl)cc2[nH]1)C(=O)NC1CC2CCC(C1)N2C` (stereo not drawn) [Example 66, (2Z,4E)-6-(5,6-dichloro-2-indolyl)-N-[8-methyl-8-azabicyclo[3.2.1]oct-3β-yl]-2-methoxy-2,4-pentadienamide], the IC50 was 0.1 µM.
`CO/C(=C\C=C\c1cc2cc(Cl)c(Cl)cc2[nH]1)C(=O)N[C@@H]1CN2CCC1CC2` [Example 50, (2Z,4E)-N-[(S)-1-Azabicyclo[2.2.2]octan-3-yl]-5-(5,6-dichloro-2-indolyl)-2-methoxy-2,4-pentadienamide] showed an IC50 of 0.62 µM.
Molecule `CO/C(=C\C=C\c1cc2cc(Cl)c(Cl)cc2[nH]1)C(=O)NCCCN1CCOCC1` [Example 51, (2Z,4E)-5-(5,6-Dichloro-2-indolyl)-N-[3-(morpholino)propyl]-2-methoxy-2,4-pentadienamide] has an IC50 of 1.1 µM.
`CO/C(=C\C=C\c1cc2cc(Cl)c(Cl)cc2[nH]1)C(=O)NC1CCN(C)CC1` [Example 70, (2Z,4E)-5-(5,6-Dichloro-2-indolyl)-2-methoxy-N-[4-(1-methyl)-piperidinyl]-2,4-pentadienamide] gave an IC50 of 0.12 µM.
For `CO/C(=C\C=C\c1cc2cc(Cl)c(Cl)cc2[nH]1)C(=O)NCCC1CCCN1C` (stereo not shown) [Example 54, (2Z,4E)-5-(5,6-Dichloro-2-indolyl)-2-methoxy-N-[2-[2-(1-methyl)pyrrolidinyl]ethyl]-2,4-pentadienamide], the IC50 was 0.34 µM.
For `CO/C(=C\C=C\c1cc2cc(Cl)ccc2[nH]1)C(=O)N(Cc1ccccc1)CC(O)CO` (stereo not shown) [Example 20, (2Z,4E)-5-(5-Chloro-2-indolyl)-N-2,3-dihydroxypropyl-2-methoxy-N-phenylmethyl-2,4-pentadienamide], the IC50 was 15 µM.
`CCN(CC)CCCNC(=O)/C(=C/C=C/c1cc2cc(Cl)c(Cl)cc2[nH]1)OC` [Example 34, (2Z,4E)-5-(5,6-Dichloro-2-indolyl)-N-[3-(diethylamino)-propyl]-2-methoxy-2,4-pentadienamide] showed an IC50 of 0.17 µM.
`CO/C(=C\C=C\c1cc2cc(Cl)ccc2[nH]1)C(=O)Nc1cccnc1` [Example 33] showed an IC50 of 4 µM.
`CO/C(=C\C=C\c1cc2cc(Cl)c(Cl)cc2[nH]1)C(=O)Nc1ncccn1` [Example 65, (2Z,4E)-5-(5,6-Dichloro-2-indolyl)-2-methoxy-N-(2-pyrimidinyl)-2,4-pentadienamide] showed an IC50 of 17 µM.
For `CO/C(=C\C=C\c1cc2cc(Cl)c(Cl)cc2[nH]1)C(=O)Nc1cccnc1` [Example 44, (2Z,4E)-5-(5,6-Dichloro-2-indolyl)-2-methoxy-N-(3-pyridyl)-2,4-pentadienamide], the IC50 was 0.62 µM.
With `CCN(CCCNC(=O)/C(=C/C=C/c1cc2cc(Cl)c(Cl)cc2[nH]1)OC)Cc1ccccc1` [Example 62] the IC50 was 1.4 µM.
`CO/C(=C\C=C\c1cc2cc(Cl)c(Cl)cc2[nH]1)C(=O)NCCCN1CCCCC1C` (stereo not shown) [Example 59, (2Z,4E)-5-(5,6-Dichloro-2-indolyl)-2-methoxy-N[3-[1-(2-methyl)piperidin-yl]-propyl]-2,4-pentadienamide] gave an IC50 of 0.13 µM.
Molecule `COC(=O)/C(=C/C=C/c1cc2cc(Cl)ccc2[nH]1)OC` [Example 4, Methyl (2Z,4E)-5-(5-chloro-2-indolyl)-2-methoxy-2,4-pentadienoate] has an IC50 of 7 µM.
Molecule `CCN(CC)CCNC(=O)/C(=C/C=C/c1cc2cc(Cl)c(Cl)cc2[nH]1)OC` [Example 46, (2Z,4E)-5-(5,6-Dichloro-2-indolyl)-N-[2-(diethylamino)-ethyl]-2-methoxy-2,4-pentadienamide] has an IC50 of 0.59 µM.
`CO/C(=C\C=C\c1cc2cc(Cl)c(Cl)cc2[nH]1)C(=O)NN1CCN(C)CC1` [Example 60, (2Z,4E)-5-(5,6-Dichloro-2-indolyl)-2-methoxy-N-[1-(4-methylpiperazinyl)]-2,4-pentadienamide] gave an IC50 of 0.85 µM.
Molecule `CCN(CC)CCCNC(=O)/C(=C/C=C/c1cc2cc(Cl)ccc2[nH]1)OC` [Example 26, (2Z,4E)-5-(5-Chloro-2-indolyl)-N-[3-(diethylamino)-propyl]-2-methoxy-2,4-pentadienamide] has an IC50 of 3 µM.
Work on `CO/C(=C\C=C\c1cc2cc(Cl)ccc2[nH]1)C(=O)NCc1cccnc1` [Example 15, (2Z,4E)-5-(5-Chloro-2-indolyl)-2-methoxy-N-(3-pyridylmethyl)-2,4-pentadienamide] yielded an IC50 of 22 µM.
In the case of `CO/C(=C\C=C\c1cc2cc(Cl)c(Cl)cc2[nH]1)C(=O)Nc1ccc(OC)nc1` [Example 57, (2Z,E)-5-(5,6-Dichloro-2-indolyl)-2-methoxy-N-[5-(2-methoxy)pyridyl]-2,4-pentadienamide], the IC50 is reported as 1.6 µM.
`CO/C(=C\C=C\c1cc2cc(Cl)c(Cl)cc2[nH]1)C(=O)NCCCN1CCN(C)CC1` [Example 67, (2Z,4E)-5-(5,6-Dichloro-2-indolyl)-2-methoxy-N-[3-[1-(4-methyl)piperazinyl]-propyl]-2,4-pentadienamide] gave an IC50 of 1.3 µM.
`CO/C(=C\C=C\c1cc2cc(Cl)c(Cl)cc2[nH]1)C(=O)NCCCN(CC(=O)O)CC(=O)O` [Example 45, hydrochloride] gave an IC50 of 14 µM.

Test system: osteoclast proton pump
Assay: not given
Settings: ruffled membrane vesicles from avian osteoclasts; cited from earlier work
For `C[C@@H]1O[C@@H](O[C@H]2C[C@@H](O)[C@]3(CO)[C@H]4[C@H](O)C[C@]5(C)[C@@H](C6=CC(=O)OC6)CC[C@]5(O)[C@@H]4CC[C@]3(O)C2)[C@H](O)[C@H](O)[C@H]1O` [ouabain], the “inhibition of proton transport” value is given as “not inhibited”.
In the case of `[Na+].[Na+].[Na+].[O]=[V]([O-])([O-])[O-]` [sodium orthovanadate], the “inhibition of proton transport” value is given as “not inhibited”.
For `CCN1C(=O)C=CC1=O` [N-ethylmaleimide], the “inhibition of proton transport” value is given as “inhibited”.
For `COc1ccc2[nH]c([S+]([O-])Cc3ncc(C)c(OC)c3C)nc2c1` (stereo not shown) [omeprazole], the “inhibition of proton transport” value is given as “not inhibited”.
In the case of `Cc1nc2c(OCc3ccccc3)cccn2c1CC#N` [SCH 28080], the “inhibition of proton transport” value is given as “not inhibited”.
In the case of `CO/C1=C\C(C)=C\[C@@H](C)[C@@H](O)[C@@H](C)C/C(C)=C/C=C/[C@H](OC)[C@@H]([C@@H](C)[C@@H](O)[C@H](C)[C@@]2(O)C[C@@H](O)[C@H](C)[C@@H](C(C)C)O2)OC1=O` [bafilomycin A1], the “inhibition of proton transport” value is given as “inhibited”.

Test system: osteoclast cultures
Assay: not given
Settings: cited from earlier work
In the case of `CO/C1=C\C(C)=C\[C@@H](C)[C@@H](O)[C@@H](C)C/C(C)=C/C=C/[C@H](OC)[C@@H]([C@@H](C)[C@@H](O)[C@H](C)[C@@]2(O)C[C@@H](O)[C@H](C)[C@@H](C(C)C)O2)OC1=O` [bafilomycin A1], the “inhibition of bone resorption” value is given as “inhibit bone resorption”.
